This is an account of results in paper PMC9320114 (Molecules, 2022).

Like-named read-outs stand apart in the source and are kept apart here.

As usually defined, the IC50 is the concentration that inhibits the measured activity by half.

For test [1], the target named is human butyrylcholinesterase (hBChE) (Homo sapiens, UniProt P06276). The test can be described thus: biochemical. It is filed as biochemical. The protocol: (§1) Enzyme solutions were prepared by diluting the concentrated enzyme stock solutions (4.6 mg/mL in 10 mM MES-NaOH buffer, pH 6.5) in a sodium phosphate-buffered solution (0.1 M, pH 8.0). […] The final organic solvent (DMSO) content was always 1% (v/v). Reactions were initiated by adding the substrate to the enzyme and inhibitor, which were preincubated for 5 min. […] To determine the blank value (b), the enzyme solution was replaced by a phosphate-buffered solution. The initial velocity (v) was calculated from the slope of the linear trend obtained, with each measurement performed in triplicate. The inhibitory potencies were expressed as RA=(vi − b)/(vo − b), where vi is the velocity in the presence of the test compounds and vo is the control velocity in the presence of DMSO. Seven different concentrations of each compound were used for the IC50 measurements. IC50 values were obtained by plotting the residual enzyme activities against the applied inhibitor concentrations, fitting the experimental data to the 4-parameter Hill equation:(1) Y=Bottom+(Top−Bottom)/1+10^((LogIC50−X)×Hill Slope) where X is the logarithm of the inhibitor concentration, and Y is the residual activity. GraphPad Prism 8.2.0 (GraphPad Software, San Diego, CA, USA) was used for the fitting procedure.
Sequence of human butyrylcholinesterase (hBChE) (P06276 29-602): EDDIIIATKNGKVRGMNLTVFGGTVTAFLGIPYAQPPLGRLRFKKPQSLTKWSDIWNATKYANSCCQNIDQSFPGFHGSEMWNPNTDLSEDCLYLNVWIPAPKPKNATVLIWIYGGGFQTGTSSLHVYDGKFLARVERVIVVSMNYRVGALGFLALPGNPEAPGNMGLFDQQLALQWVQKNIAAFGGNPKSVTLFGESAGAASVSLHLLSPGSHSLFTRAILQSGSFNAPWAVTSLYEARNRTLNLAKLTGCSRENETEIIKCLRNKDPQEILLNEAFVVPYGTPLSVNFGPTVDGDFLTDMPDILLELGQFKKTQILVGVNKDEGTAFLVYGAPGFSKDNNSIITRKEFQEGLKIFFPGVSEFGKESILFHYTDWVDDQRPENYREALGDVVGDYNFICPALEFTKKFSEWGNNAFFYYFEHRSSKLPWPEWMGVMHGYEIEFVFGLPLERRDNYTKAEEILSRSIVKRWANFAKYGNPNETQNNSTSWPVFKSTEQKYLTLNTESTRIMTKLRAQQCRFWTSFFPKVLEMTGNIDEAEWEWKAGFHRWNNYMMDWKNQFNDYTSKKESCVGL

Test [2] has as its target T1, murine acetylcholinesterase (mAChE) (Mus musculus, UniProt P21836).
T1 sequence (P21836 32-614): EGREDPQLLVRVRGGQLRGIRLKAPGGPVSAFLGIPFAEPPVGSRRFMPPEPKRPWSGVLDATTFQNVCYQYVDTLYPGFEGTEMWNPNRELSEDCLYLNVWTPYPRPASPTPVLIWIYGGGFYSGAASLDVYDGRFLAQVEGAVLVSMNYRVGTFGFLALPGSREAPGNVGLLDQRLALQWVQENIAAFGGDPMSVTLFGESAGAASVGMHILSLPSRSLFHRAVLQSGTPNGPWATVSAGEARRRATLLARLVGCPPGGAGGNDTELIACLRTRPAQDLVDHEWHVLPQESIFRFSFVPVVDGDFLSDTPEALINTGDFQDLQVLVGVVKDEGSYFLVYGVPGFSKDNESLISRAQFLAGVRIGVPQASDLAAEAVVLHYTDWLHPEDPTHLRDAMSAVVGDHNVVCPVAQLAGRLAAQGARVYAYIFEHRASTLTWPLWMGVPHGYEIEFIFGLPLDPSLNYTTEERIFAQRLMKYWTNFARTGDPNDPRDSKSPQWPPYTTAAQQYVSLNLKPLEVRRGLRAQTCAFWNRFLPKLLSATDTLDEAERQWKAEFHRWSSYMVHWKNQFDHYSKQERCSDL
In words: biochemical. Format: biochemical. The settings on record: for RA (mAChE, 10 µM) / remaining activity at 10 µM / mAChE RA (%): residual activity at 10 µM; for RA (mAChE, 10 µM): Figure 1; for remaining activity at 10 µM: read-out: mAChE RA (%). On the procedure: as §1

The target of another test is MurA (Escherichia coli, UniProt P0A749). The test can be described thus: Inhibition of MurA, colorimetric malachite green method. The note with it: for remaining activity at 50 µM: 0.25 h, read-out: MurA (RA [%]); for RA (MurA, 50 µM): residual activity at 50 µM, Figure 1; for MurA RA (%): residual activity at 100 µM, Table 1. Format: biochemical, bacterial. The protocol:
Inhibition of Mur enzymes was monitored with the colorimetric malachite green method, which measured orthophosphate formed during reaction. The mixtures with a final volume of 50 µL contained:
MurA: 50 mM HEPES-NaOH, pH 7.8, 0.005% Triton X-114, 200 µM uridine-diphosphate-N-acetylglucosamine, 100 µM phosphoenolpyruvate, purified MurA, and 50 or 100 µM of each compound tested.
All compounds were soluble in the assay mixtures containing 5% DMSO (v/v). After incubation for 15 min (20 min for DdlB) at 37 °C, the enzyme reaction was terminated by addition of Biomol® reagent (100 µL) and absorbance was measured after 5 min at 650 nm (Synergy™ H4 microplate reader; BioTek Instruments, Inc., BioTek Gen5 Data Analysis Software, version 2.9, Santa Clara, CA, USA). All experiments were performed in duplicate.

Setting [3] is: residual activity at 10 µM; Mini Library screen, Table S1.
[4] abbreviates: residual activity at 10 µM; Table 1; read-out: hBChE RA (%).
Where [5] appears, read: residual activity at 10 µM; Table 4; read-out: hBChE RA (%).

Sequence of MurA (P0A749 whole entry): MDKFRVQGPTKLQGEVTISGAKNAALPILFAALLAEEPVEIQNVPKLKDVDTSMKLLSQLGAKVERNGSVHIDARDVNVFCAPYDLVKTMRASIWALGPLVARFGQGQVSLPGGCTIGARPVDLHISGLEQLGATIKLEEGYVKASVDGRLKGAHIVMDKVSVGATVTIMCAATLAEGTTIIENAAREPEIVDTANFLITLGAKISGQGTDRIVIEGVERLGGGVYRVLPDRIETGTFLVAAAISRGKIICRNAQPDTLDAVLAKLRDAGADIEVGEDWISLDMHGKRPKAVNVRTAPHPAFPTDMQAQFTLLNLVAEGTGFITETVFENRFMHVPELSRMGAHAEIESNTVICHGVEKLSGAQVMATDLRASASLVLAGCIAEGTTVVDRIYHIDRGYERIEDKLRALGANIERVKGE

For `CCCCCCN(Cc1ccc(C#Cc2ccc(CCCC)cc2)cc1)C(=O)c1ccc(O)c(C(=O)O)c1` [MS-ML25], the “hBChE RA (%)” value in test [1] (setting [3]) amounted to 108%. The values for the remaining activity at 10 µM in test [1] (setting [4]) and in test [2] (Table 1) were 55% and 3%, respectively. For the same compound, the IC50 in test [2] (Mini Library screen, Table S1) came to 369 ± 55 nM; in test [2] (Table 1, IC50 ± SEM), 485 ± 79 nM; at MurA, 6000 ± 2000 nM. Moreover, in test [2], the “RA (mAChE, 10 µM)” value came out at 3%. For the same compound, the remaining activity at 50 µM on MurA is 0%. The “RA (MurA, 50 µM)” value at MurA came out at 0%. Further, the “MurA RA (%)” value on MurA is 0%.
For `CCCCCCN(Cc1ccc(C#Cc2ccc(CCCC)cc2)cc1)c1ccc(O)c(C(=O)O)c1` [MS-ML24], the IC50 in test [1] (Table 1; IC50 ± SEM; read-out: hBChE IC50) was determined as 949 ± 46 nM; in test [2] (Mini Library screen, Table S1), 414 ± 40 nM; in test [2] (Table 1, IC50 ± SEM) it was 294 ± 25 nM; on MurA, 7000 ± 3000 nM. Moreover, in test [1] (setting [3]), the “hBChE RA (%)” value is on record as 60%. The remaining activity at 10 µM turned out to be 9% in test [1] (setting [4]) and 1% in test [2] (Table 1). Also, the “RA (mAChE, 10 µM)” value in test [2] came out at 1%. For the same compound, at MurA, the remaining activity at 50 µM was 15%. Moreover, the “RA (MurA, 50 µM)” value at MurA is reported as 15%. Also, at MurA, the “MurA RA (%)” value was 0%.
Turning to `O=C(Nc1ccc(Oc2ccncc2)cc1)Nc1cc(C(F)(F)F)ccc1-n1cncn1` [MS-ML80], the “hBChE RA (%)” value in test [1] (setting [3]) amounted to 73%. In addition, the “mAChE RA (%)” value in test [2] (Mini Library screen, Table S1) is 95%. Also, at MurA, the remaining activity at 50 µM turned out to be 93%.
Regarding `CCCCc1nc2ccn(Cc3ccccc3)c(=O)c2n1Cc1ccc(-c2ccccc2-c2nnn[nH]2)cc1` [MS-ML03], the “hBChE RA (%)” value in test [1] (setting [3]) was determined as 87%. Moreover, the “mAChE RA (%)” value in test [2] (Mini Library screen, Table S1) is 92%. In addition, the remaining activity at 50 µM on MurA was determined as 100%.
Consider `CCCCCCN(Cc1ccc(C#Cc2ccc(CCCC)cc2)cc1)c1ccc(F)c(C(=O)O)c1` [MS-ML26], for which, in test [1] (setting [3]), the “hBChE RA (%)” value came out at 68%. The remaining activity at 10 µM is 57% in test [1] (setting [4]) and 8% in test [2] (Table 1). The IC50 in test [2] (Mini Library screen, Table S1) came out at 359 ± 39 nM; in test [2] (Table 1, IC50 ± SEM), 275 ± 60 nM; at MurA, 7000 ± 4000 nM. Besides, the “RA (mAChE, 10 µM)” value in test [2] was 8%. In addition, the remaining activity at 50 µM at MurA amounted to 7%. For the same compound, the “RA (MurA, 50 µM)” value at MurA was 7%. The “MurA RA (%)” value at MurA is reported as 0%.
Take `Oc1ccc2[nH]cc(CCCCN3CC=C(c4ccccc4)CC3)c2c1` [MS-ML11]: the IC50 in test [1] (read-out: hBChE IC50; Table 4; IC50 ± SEM) amounted to 78.8 ± 10.3 nM. Further, the remaining activity at 10 µM in test [1] (setting [5]) was determined as 0%; in test [2] (Table 4), 82%. Further, the “mAChE RA (%)” value in test [2] (Mini Library screen, Table S1) is recorded as 82%. At MurA, the remaining activity at 50 µM turned out to be 100%.
As for `C1=C(c2ccccc2)CCN(CCCCc2c[nH]c3ccccc23)C1` [MS-ML10], the IC50 in test [1] (Table 4; IC50 ± SEM; read-out: hBChE IC50) was 35.6 ± 0.3 nM. Further, the remaining activity at 10 µM stood at 0% in test [1] (setting [5]) and 64% in test [2] (Table 4). For the same compound, the “mAChE RA (%)” value in test [2] (Mini Library screen, Table S1) came out at 64%. Further, the remaining activity at 50 µM on MurA turned out to be 110%.
Consider `CCCCc1nc2ccn(CC(=O)N3CCCCC3)c(=O)c2n1Cc1ccc(-c2ccccc2S(=O)(=O)NC(=O)OCc2ccccc2)cc1F` [MS-ML05], for which the “hBChE RA (%)” value in test [1] (setting [3]) is on record as 91%. Also, the “mAChE RA (%)” value in test [2] (Mini Library screen, Table S1) came to 96%. In addition, the remaining activity at 50 µM on MurA amounted to 90%.
As to `O=C(OC[C@H]1CCCN1c1ccnc2ncnn12)c1ccc(Oc2ccccc2)nc1` [MS-ML31], in test [1] (setting [3]), the “hBChE RA (%)” value is recorded as 84%. The “mAChE RA (%)” value in test [2] (Mini Library screen, Table S1) turned out to be 89%. Besides, the remaining activity at 50 µM at MurA was found to be 94%.
